Laboratory results: patent US5641480A, “Hair care compositions comprising heteroatom containing alkyl aldonamide compounds” (Lever Brothers Company, Division of Conopco, Inc., priority 1994, dated 1997)
Where two headings read alike, the source gives them in different places.

Experiments:
[1] = Ross-Miles foam height assay of aldonamides (Examples 81-84); assay type: physicochemical; conditions: 0.1% aldonamide, 40° C. (if not soluble, about 5°-10° C. above Krafft point), 0 ppm hardness; for Foam Height Final: after 10 minutes
Method: In the Ross-Miles method, 200 mL of a suffactant solution contained in a pipette of specified dimensions with a 2.9 -mm-i.d. orifice is allowed to fall 90 cm onto 50 mL of the same solution contained in a cylindrical vessel maintained at a given temperature by means of a water jacket. The height of the foam produced in the cylindrical vessel is read immediately after all the solution has run out of the pipette and then again after a given amount of time.
Using this method, the foam production (initial foam height in mm) and foam stability (final foam height after 10 minutes in mm) were measured at 0.1% aldonamtde concentration, 40° C. and 0 ppm (parts per million) hardness.

[2] = Clarity of prototype shampoo compositions with sodium lauryl sulfate (Example 87); assay type: physicochemical; conditions: room temperature, 6 months
Method: (§1) The prototype shampoo composition is as follows:
(§2) The above formulations were prepared by admixing the above ingredients in listed order and heating the mixture to about 80° C. with rapid stirring. The mixture was then cooled to about 40° C., placed in a clear jar and stored at room temperature for 6 months.

[3] = Viscosity of prototype shampoo compositions with sodium lauryl sulfate, Brookfield Digital Viscometer (Example 88); assay type: physicochemical; conditions: vs no thickener
Method: as §1, §2
It is well known that the viscosity of a liquid composition comprising of anionic surfactant can be modified by the addition of inorganic salts, such as sodium chloride. However, in the absence of an organic modifier, high levels of salt may be necessary to achieve the required viscosity which may lead to problems of storage at cold temperature or even salting out certain ingredients. In practice, however, the viscosity of a liquid composition is modified by the simultaneous addition of thickener and small amounts of inorganic salt (viscosity cobuilder). The combined effect is greater than either one alone. The viscosity of the above prototype shampoo composition comprising various amounts of heteroatom containing alkyl aldonamide compound is as follows: […]

[4] = Krafft point determination; assay type: physicochemical; conditions: 0.1% in water
Method: The temperature at and above which surfactants begin to form micelles instead of precipitates is referred to as the Krafft point (Tk) and at this temperature the solubility of a surfactant becomes equal to its CMC (numerical value at which micelles are formed).
The Krafft point was measured by preparing 650 ml of a 0.1% or 1.0% dispersion of aldonamide in water by weight. If the surfactant was soluble at room temperature, the solution was slowly cooled to 0° C. […] (less than zero). If it precipitated out of solution, the temperature at which precipitation occurs was taken as the Krafft point.
If the surfactant was insoluble at room temperature, the dispersion was slowly heated until the solution became homogeneous. It was then slowly cooled until precipitation occurred. The temperature at which the surfactant precipitates out of solution upon cooling was taken as the Krafft point.

[5] = Effectiveness in reducing surface tension (Example 93); assay type: physicochemical; conditions: 60 °C, estimated by extrapolation
Excerpt: As mentioned before, surface tension reduction depends on the replacement of water molecules at the interface by surfactant molecules, therefore the effectiveness of a surfactant in reducing interfacial surface tension should reflect the saturated concentration of surfactant at the interface relative to that in bulk liquid phase. During this process the surface tension of water steadily decreases as bulk phase surfactant concentration increases. This will continue until the concentration reaches the critical micelle concentration (CMC), above which the surface tension remains nearly unchanged and the interface is saturated with surfactant. The surface tension at the CMC is therefore very close to the minimum interfacial tension or maximum surface pressure that the system can achieve. The surface pressure at this point, IIcmc, is a suitable measure of the effectiveness of a surfactant in reducing surface tension and is given as:
.PI.cmc 20+2.3nRT(Γmax) log [CMC/C20 ]
n=1 which represents the number of ions whose surface concentration changes with the change in liquid phase suffactant concentration.
CMC/C20 =is the ratio of the critical micelle concentration to the bulk phase surfactant concentration necessary to reduce the surface tension of water by 20 dyn/cm.

[6] = Effectiveness of adsorption, surface excess concentration at surface saturation (Example 94); assay type: physicochemical; conditions: 60 °C, estimated by extrapolation
Excerpt: The surface excess concentration at surface saturation (Γmax) is defined as a measure of the effectiveness of surfactant adsorption at the water/air interface and represents the maximum value to which adsorption can be obtained. Effectiveness of adsorption is related to the interfacial area occupied by the surfactant molecule. The smaller the effective cross-sectional area of a surfactant at the interface, the greater its effectiveness of adsorption. The effectiveness of adsorption is an important factor in determining surfactant properties such as detergency, foaming, wetting or emulsification. While not wishing to be bound by theory, it is believed that surfactants that absorb effectively at the interface tend have tightly packed coherent interfacial films and often provide better surfactant benefits than those with loosely packed noncoherent films. The effectiveness of adsorption of C8 /C10 oxypropyl D-gluconamide was determined using the Gibbs equation given as: […]
ergs/cm^2 (which is equivalent to the slope of a plot of γ

[7] = Area per molecule at the water/air interface (Example 95); assay type: physicochemical; conditions: 60 °C, estimated by extrapolation
Excerpt: The area per molecule of a surfactant at the water/air interface provides information on the degree of packing and the orientation of the adsorbed surfactant molecule. While not wishing to be bound by theory, it is believed that surfactants that have small area per molecule values tend to pack more closely at the interface than those with large area per molecule values. From the surface excess concentration at surface saturation (Γmax), the area per molecule (am) of C8 /C10 oxypropyl D-gluconamide was determined and is given by:
am =1×10^16 /Nav Γmax

[8] = 25 °C, Rosen; cited from earlier work
[9] = Rosen, cited from earlier work
[10] = Rosen, cited from earlier work; remark: listed apart in the source
[11] = Rosen, cited from earlier work; remark: listed apart in the source
[12] = Foam stability and enhancement of prototype shampoo (sodium/ammonium lauryl sulfate), Ross-Miles Foam Height assay (Example 86); assay type: physicochemical; conditions: 45° C., 4.0% additive in prototype shampoo
Method: The results were compared to identical compositions comprising petrochemitcally derived foam stabilizing agents, in particular, alkanolamides and alcohol ethoxylates. The prototype shampoo composition is as follows:
The compositions were prepared by admixing the ingredients in listed order with rapid stirring at 45°-50° C. Foam stability and enhancement were measured at 0.1% based on sodium and ammonium lauryl sulfate (0.16% total solids) at 45° C. and 0 or 120 parts per million (ppm) hardness calcium:magnesium ion 2:1.

[13] = Viscosity of prototype shampoo compositions of Example 86, Brookfield Digital Viscometer; assay type: physicochemical; conditions: 4.0% thickener, Example 86 shampoo, 22° C.
Excerpt: The results are as follows:

[14] = Foam stability and enhancement of sodium dodecyl benzene sulfonate, Ross-Miles method (Example 85); assay type: physicochemical; conditions: 30 minutes, 10:90 mole %, 35° C., pH 10
Method: The triolein/calcium stearate mixture was dispersed to the above solutions using a high speed shear mixer at 60° C. and then cooled to 35° C. The triolein/calcium stearate mixture represents an extreme type of antifoam behavior found in sebum soil.
The foaming behavior of the above surfactants was determined by the Ross-Miles Foam Height Assay (Ross, J. and Miles, G. D. Am Soc. for Testing Material Method Dl173-63 Philadelphia, Pa. (1953); Oil & Soap (1958) 62:1260) and the cylinder shaking method.
In the Ross-Miles method, 200 mL of a surfactant solution contained in a pipette of specified dimensions with a 2.9-mm-i.d. orifice is allowed to fall 90 cm onto 50 mL of the same solution contained in a cylindrical vessel maintained at a given temperature by means of a water jacket. The height of the foam produced in the cylindrical vessel is read after 30 minutes has elapsed.
The foam stability and enhancement of the heteroatom containing alkyl aldonamides was further determined using a 10:90 mole percent solution of C8 /C10 oxypropyl D-gluconamide (C8 /C10 OPG): sodium dodecyl benzene sulfonate (C12 LAS) and compared to identical solutions of dodecyl D-gluconamide (C12 Gluc): sodium dodecyl benzene sulfonate in the presence and absence of the triolein/calcium stearate antifoam.

[15] = 5.0% thickener in […] sodium lauryl sulfate shampoo
[16] = 3.0% thickener in […] sodium lauryl sulfate shampoo

## CCCCCCCCCNC(=O)[C@H](O)[C@@H](O)[C@H](O)[C@H](O)CO [C9 D-Gluconamide]
[1]
  Foam Height Initial: 0 mm
  Foam Height Final: 0 mm
[2]; 4.0% thickener in […] sodium lauryl sulfate shampoo
  Appearance (Time): Precipitate (2 weeks)
[2]; [15]
  Appearance (Time): Precipitate (2 weeks)

## CCCCCCCCCCNC(=O)[C@H](O)[C@@H](O)[C@H](O)[C@H](O)CO [C10 D-Gluconamide]
[1]
  Foam Height Initial: 199 mm
  Foam Height Final: 6 mm
[2]; [16]
  Appearance (Time): Precipitate (1 week)
[2]; [15]
  Appearance (Time): Precipitate (5 days)

## CCCCCCCCCCCCOCCCNC(=O)[C@H](O)[C@@H](O)[C@H](O)[C@H](O)CO [C12 Oxypropyl D-Gluconamide]
[1]
  Foam Height Initial: 200 mm
  Foam Height Final: 110 mm
[2]; [16]
  Appearance (Time): Clear
[2]; [15]
  Appearance (Time): Precipitate (5 months)
[3]; 3.0% thickener
  Increase (viscosity): 120 ×
[3]; 5.0% thickener
  Increase (viscosity): 1373 ×

## CCCCCCCCCCCCOCCCNC(=O)[C@H](O)[C@@H](O)[C@H](O[C@@H]1O[C@H](CO)[C@H](O)[C@H](O)[C@H]1O)[C@H](O)CO [C12 Oxypropyl D-Lactobionamide, Dodecyloxypropyl D-Lactobionamide]
[1]
  Foam Height Initial: 165 mm
  Foam Height Final: 154 mm
[4]
  Krafft Point (0.1%): < 0 °C
[3]; 3.0% thickener
  Increase (viscosity): 23 ×
[3]; 5.0% thickener
  Increase (viscosity): 97 ×

## CCCCCCCCCCCCOCCOCCOCCOCCOCCO [Dodecylpenta(oxyethylene) Ether]
[5]
  .PI.cmc (surface pressure): 40.7 dyn/cm
[6]
  Γmax (surface excess concentration at surface saturation): 3.16 × 10^-10 mole/cm^2
[7]
  am (area per molecule): 52.3 Å^2
[8]
  pC20: 5.37
[9]; 25 °C
  .PI.cmc (surface pressure): 41.5 dyn/cm
  CMC/C20: 15.0
[9]; 40 °C
  .PI.cmc (surface pressure): 41.2 dyn/cm
[10]; 25 °C
  Γmax (surface excess concentration at surface saturation): 3.31 × 10^-10 mole/cm^2
[10]; 40 °C
  Γmax (surface excess concentration at surface saturation): 3.28 × 10^-10 mole/cm^2
[11]; 25 °C
  am (area per molecule): 50.1 Å^2
[11]; 40 °C
  am (area per molecule): 50.6 Å^2

## CCCCCCCCCCCCOCCOCCOCCOCCO [Dodecyltetra(oxyethylene) Ether]
[5]
  .PI.cmc (surface pressure): 40.7 dyn/cm
[6]
  Γmax (surface excess concentration at surface saturation): 3.01 × 10^-10 mole/cm^2
[7]
  am (area per molecule): 53.3 Å^2
[8]
  pC20: 5.34
[9]; 25 °C
  .PI.cmc (surface pressure): 43.4 dyn/cm
  CMC/C20: 13.7
[9]; 40 °C
  .PI.cmc (surface pressure): 42.0 dyn/cm
  CMC/C20: 11.8
[10]; 25 °C
  Γmax (surface excess concentration at surface saturation): 3.63 × 10^-10 mole/cm^2
[10]; 40 °C
  Γmax (surface excess concentration at surface saturation): 3.41 × 10^-10 mole/cm^2
[11]; 25 °C
  am (area per molecule): 45.7 Å^2
[11]; 40 °C
  am (area per molecule): 48.7 Å^2

## CCCCCCCCCCCCOCCOCCOCCO [Dodecyltri(oxyethylene) Ether]
[5]
  .PI.cmc (surface pressure): 41.4 dyn/cm
[6]
  Γmax (surface excess concentration at surface saturation): 3.83 × 10^-10 mole/cm^2
[7]
  am (area per molecule): 45.4 Å^2
[8]
  pC20: 5.34
[9]; 25 °C
  .PI.cmc (surface pressure): 44.1 dyn/cm
  CMC/C20: 11.4
[9]; 40 °C
  .PI.cmc (surface pressure): 43.1 dyn/cm
[10]; 25 °C
  Γmax (surface excess concentration at surface saturation): 3.98 × 10^-10 mole/cm^2
[10]; 40 °C
  Γmax (surface excess concentration at surface saturation): 3.90 × 10^-10 mole/cm^2
[11]; 25 °C
  am (area per molecule): 41.7 Å^2
[11]; 40 °C
  am (area per molecule): 42.5 Å^2

## CCCCCCCCCCCC(=O)N(CCO)CCO [Lauramide DEA, lauramide diethanolamine]
[12]; 0 ppm hardness
  Final FH after 60 Min.: 151 mm
  Initial FH: 190 mm
[12]; 120 ppm hardness
  Final FH after 60 Min.: 126 mm
  Initial FH: 159 mm
[13]
  Viscosity: 2376 Centipoise

## Coco D-Gluconamide
[2]; [16]
  Appearance (Time): Precipitate (1 day)
[2]; [15]
  Appearance (Time): Precipitate (2 hours)

## Cocoaminopropyl D-Gluconamide
[1]
  Foam Height Initial: 186 mm
  Foam Height Final: 182 mm
[2]; [16]
  Appearance (Time): Clear
[2]; [15]
  Appearance (Time): Clear

## Octyl/Decyloxypropyl D-Lactobionamide [C8 /C10 Oxypropyl D-Lactobionamide]
[1]
  Foam Height Initial: 168 mm
  Foam Height Final: 158 mm
[4]
  Krafft Point (0.1%): < 0 °C
[2]; [16]
  Appearance (Time): Clear
[2]; [15]
  Appearance (Time): Clear

## cocoamide monoethanolamine [Cocoamide MEA]
[12]; 0 ppm hardness
  Final FH after 60 Min.: 70 mm
  Initial FH: 178 mm
[12]; 120 ppm hardness
  Final FH after 60 Min.: 53 mm
  Initial FH: 148 mm
[13]
  Viscosity: 1720 Centipoise

## sodium dodecyl benzene sulfonate [C12 LAS]
[14]
  Foam Height, No Antifoam: 131 mm
[14]; triolein/calcium stearate 1 g/L
  Foam Height, With Antifoam: 61 mm
